Paper PMC4222822, “Discovery and Characterization of a Potent and Selective Inhibitor of Aedes aegypti Inward Rectifier Potassium Channels” (PLoS ONE, 2014)

Columns and labels:
Kir4.1 = biological target: T1, Kir4.1 (Homo sapiens, UniProt P78508); experiment: Tl+ flux selectivity assay, Kir4.1; format: cell-based; details: n = 2 independent experiments in triplicate, read-out: Inhibition of Tl+ flux (IC50)
T1 construct: expressed in transfected cells
T1 sequence (P78508 1-379): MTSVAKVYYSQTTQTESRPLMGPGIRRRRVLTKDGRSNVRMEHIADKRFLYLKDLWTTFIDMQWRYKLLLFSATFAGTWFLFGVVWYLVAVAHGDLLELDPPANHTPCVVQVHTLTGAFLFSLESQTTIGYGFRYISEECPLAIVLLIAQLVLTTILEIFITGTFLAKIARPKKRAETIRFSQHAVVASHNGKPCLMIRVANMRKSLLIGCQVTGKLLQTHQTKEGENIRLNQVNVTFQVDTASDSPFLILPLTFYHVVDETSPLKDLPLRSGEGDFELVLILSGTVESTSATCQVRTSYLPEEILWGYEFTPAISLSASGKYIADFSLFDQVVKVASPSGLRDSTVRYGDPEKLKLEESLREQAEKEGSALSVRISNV
Description: Tl^+ flux assays were performed essentially as described previously, [18], [19]. Briefly, stably transfected T-Rex-HEK-293 cells expressing AeKir1 channels were cultured overnight in 384-well plates (20,000 cells/20 µL/well black-walled, clear-bottomed BD PureCoat amine-coated plates (BD, Bedford, MA) with a plating media containing DMEM, 10% dialyzed FBS and 1 µg/mL tetracycline. The next day, the cell culture medium was replaced with a dye-loading solution containing assay buffer (Hanks Balanced Salt Solution with 20 mM HEPES, pH 7.3), 0.01% (w/v) Pluronic F-127 (Life Technologies, Carlsbad, CA), and 1.2 µM of the thallium-sensitive dye Thallos-AM (TEFlabs, Austin, TX). Following 1 hr incubation at room temperature, the dye-loading solution was washed from the plates and replaced with 20 µL/well of assay buffer. […] Tl^+ flux data were analyzed as previously described, [21], [22] using a combination of Excel (Microsoft Corp, Redmond, WA) with XLfit add-in (IDBS, Guildford, Surrey, UK) and OriginPro (OriginLab, Northampton, MA) software. […] The slope of the fluorescence increase beginning 5 s after Tl^+ addition and ending 15 s after Tl^+ addition was calculated.

[1] = test system: mammalian Kir channels (Kir1.1, Kir2.1, Kir2.2, Kir2.3, Kir3.1/3.2, Kir4.1, Kir7.1(M125R), Kir6.2/SUR1); experiment: Tl+ flux assays against a panel of mammalian Kir channels; format: cell-based; details: vs AeKir1 IC50 = 96.8 nM
Description: The plates were transferred to a Hamamatsu Functional Drug Screening System 6000 (FDSS6000; Hamamatsu, Hamamatsu (or Bridgewater, NJ), Japan) where 20 µL/well of test compounds in assay buffer (as prepared below) were added and allowed to incubate with the cells for 20 min. After the incubation period, a baseline recording was collected at 1 Hz for 10 s (excitation 470±20 nm, emission 540±30 nm) followed by a Tl^+ stimulus buffer addition (10 µL/well) and data collection for an additional 4 min. The Tl^+ stimulus buffer contains in (mM) 125 NaHCO3, 1.8 CaSO4, 1 MgSO4, 5 glucose, 12 Tl2SO4, 10 HEPES, pH 7.4. For Tl^+ flux assays on the mammalian channels Kir2.x, Kir4.1 and Kir6.2/SUR1 expressing cells, the Tl^+ stimulus buffer contained 1.8 mM Tl2SO4. Also, Tl^+ flux assays on Kir3.1/3.2/mGlu8 expressing cell, required addition of an EC80 concentration of glutamate (Sigma-Aldrich, St. Louis, MO) with the Tl^+ stimulus buffer.
The test compounds were transferred to daughter polypropylene 384-well plates (Greiner Bio-One, Monroe, NC) using an Echo555 liquid handler (Labcyte, Sunnyvale, CA), and then diluted into assay buffer to generate a 2X stock in 0.6% DMSO (0.3% final). For Tl^+ flux assays on Kir6.2/SUR1 expressing cells, test compounds were diluted in assay buffer containing diazoxide (250 µM final) to induce channel activation. […]

CCC(=O)N1c2ccc(S(=O)(=O)Nc3cccc(OC)c3)cc2CC1C (centres unmarked) [VU625, N-(3-methoxyphenyl)-2-methyl-1-propionylindoline-5-sulfonamide]
IC50 (Kir4.1): > 30 µM
selectivity for the AeKir1 channel over 8 mammalian Kir channels [1]: greater than 80 fold
